# Experimental data as given in US20020035131A1, “Regimen and kit for amelioration of premature ejaculation” (Pentech Pharmaceuticals, Inc., priority 1999, published 2002).
# Tests used:
# [1] = test system: normally potent male patients suffering from premature ejaculation; experiment: Example 2 Study Group 1: single blind cross-over, continual maintenance paroxetine vs placebo (ELT, coitus frequency); format: in vivo, human
# Source text: All patients in the study group were heterosexual, had no other sexual disorders and were either married or in a stable relationship. Patients with erectile dysfunction, reduced sexual desire, inhibited male orgasm, chronic depressive, psychiatric or physical illness, alcohol or substance abuse and the use of psychotropic and anti-depressant medication were excluded from the trial. Study Group 1 was comprised of 26 patients who were randomized into two treatment groups, Group A and Group B. […] Group B received placebo similarly administered about 3-4 hours before sexual intercourse. Patients were reviewed every two weeks. Cross-over was then conducted in both groups after four weeks of treatment, following an intervening three week drug free “washout” period, for a further four weeks of treatment. None of the patients received any formal psychosexual counseling. Patients were supplied with a diary and were asked to record their frequency of coitus, quality of erection and orgasm. Patients were asked to measure their ELT using a stopwatch. Pre-treatment mean ELT was measured over a three week baseline period during which patients were asked to have sexual intercourse at least three times. Pre-treatment frequency of coitus was the mean number of attempts in the previous three months. Patients were asked not to use condoms or topical penile anaesthetic creams or sprays. The frequency data of coitus and ejaculatory latency time (ELT) during the paroxetine and placebo treatment phases were statistically compared (Student's t-test).
# [2] = test system: healthy men with a diagnosis of premature ejaculation (PE); experiment: Example 4: double-blind, randomized, parallel safety and efficacy study, 6, 9 and 12 mg capsules; format: in vivo, human; conditions: for Time to Ejaculate, Mean Time (minutes), Reported By Partner / Time to Ejaculate, Range (minutes), Reported By Partner / Time to Ejaculate, Mean Time (minutes), Reported By Patient / Time to Ejaculate, Range (minutes), Reported By Patient: after 6 weeks treatment, baseline latency ≦ 2 minutes, preliminary data; for Time to Ejaculate, Mean Time (minutes), Reported By Partner / Time to Ejaculate, Range (minutes), Reported By Partner: n 23; for Reason for Early Termination: AE (Adverse Experience), patients: 6, 9 and 12 mg capsules combined
# Experimental: A double-blind, randomized, parallel safety and efficacy study was conducted at six clinical sites, A-F. […] The study consisted of a screening period, baseline period, and two treatment periods. The patients who completed the study participated for about nine weeks. The patients selected were healthy men between the ages of 21 and 65 years with a diagnosis of premature ejaculation (PE). Patients who met the selection criteria provided a medical history and submitted to psychosexual and physical examinations at screening. The efficacy of the paroxetine capsules was assessed at each visit. Safety was assessed by physical examinations and adverse experience (AE) reports, if any, were collected throughout the study. A post-treatment physical assessment was performed at the final visit. Qualified patients who were admitted to this study were assigned an identification number in sequential order by enrollment. […] There were a total of about eighteen patients per dose/per site. […] The capsule was to be taken one hour after breakfast or within two hours of awakening.
# dopamine receptors = conditions: unlike sertraline; cited from earlier work
# P450 2D6 enzyme = P450 2D6 enzyme (Homo sapiens, UniProt P10635); conditions: cited from earlier work
# Sequence of P450 2D6 enzyme (P10635 whole entry): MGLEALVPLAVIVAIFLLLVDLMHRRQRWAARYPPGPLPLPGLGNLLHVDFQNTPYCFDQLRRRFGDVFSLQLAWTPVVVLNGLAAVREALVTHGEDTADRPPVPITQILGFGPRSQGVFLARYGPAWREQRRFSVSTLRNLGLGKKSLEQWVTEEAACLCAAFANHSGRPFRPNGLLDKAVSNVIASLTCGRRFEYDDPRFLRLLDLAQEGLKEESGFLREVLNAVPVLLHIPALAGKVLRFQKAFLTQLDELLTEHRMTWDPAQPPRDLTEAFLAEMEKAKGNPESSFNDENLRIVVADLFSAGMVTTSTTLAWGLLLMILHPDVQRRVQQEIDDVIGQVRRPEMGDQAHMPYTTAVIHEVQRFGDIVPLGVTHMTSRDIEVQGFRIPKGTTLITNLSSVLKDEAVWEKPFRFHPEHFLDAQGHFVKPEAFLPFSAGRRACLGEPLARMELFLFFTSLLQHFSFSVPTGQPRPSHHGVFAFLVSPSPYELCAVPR
# [3] = Study Group 1-A, week 1: continual maintenance paroxetine 20 mg 3-4 hours before intercourse
# [4] = Study Group 1-A, week 2: continual maintenance paroxetine 20 mg 3-4 hours before intercourse
# [5] = Study Group 1-A, week 3: continual maintenance paroxetine 20 mg 3-4 hours before intercourse
# [6] = Study Group 1-A, week 4: continual maintenance paroxetine 20 mg 3-4 hours before intercourse
# [7] = Study Group 1-B, week 8: first week of continual maintenance paroxetine 20 mg after placebo and washout
# [8] = Study Group 1-B, week 9: second week of continual maintenance paroxetine 20 mg after placebo and washout
# [9] = Study Group 1-B, week 10: third week of continual maintenance paroxetine 20 mg after placebo and washout
# [10] = Study Group 1-B, week 11: fourth week of continual maintenance paroxetine 20 mg after placebo and washout
smiles,measurement,setting,value
"Fc1ccc([C@@H]2CCNC[C@H]2COc2ccc3c(c2)OCO3)cc1 (relative stereo) [paroxetine, trans-(−)-3-(1,3-benzodioxol-5-yloxy)methyl-4-(4-fluorophenyl) piperidine]",Coitus Frequency/wk,[1]; [3],1.1 /wk
same,Ejaculatory Latency Time,[1]; [3],1.0 min
same,Coitus Frequency/wk,[1]; [4],1.4 /wk
same,Ejaculatory Latency Time,[1]; [4],3.0 min
same,Coitus Frequency/wk,[1]; [5],2.3 /wk
same,Ejaculatory Latency Time,[1]; [5],2.9 min
same,Coitus Frequency/wk,[1]; [6],3.2 /wk
same,Ejaculatory Latency Time,[1]; [6],3.2 min
same,Coitus Frequency/wk,[1]; [7],0.6 /wk
same,Ejaculatory Latency Time,[1]; [7],1.3 min
same,Coitus Frequency/wk,[1]; [8],1.9 /wk
same,Ejaculatory Latency Time,[1]; [8],2.8 min
same,Coitus Frequency/wk,[1]; [9],3.5 /wk
same,Ejaculatory Latency Time,[1]; [9],3.5 min
same,Coitus Frequency/wk,[1]; [10],3.1 /wk
same,Ejaculatory Latency Time,[1]; [10],3.5 min
same,time to prolongation of the ejaculatory interval (ELT),[1]; Study Group 1: continual maintenance paroxetine,1-2 weeks
same,patients achieving intra-vaginal ejaculation for the first time,"[1]; Study Group 1, patients who had never previously achieved it, after two weeks of treatment",one of three
same,"Time to Ejaculate, Mean Time (minutes), Reported By Partner",[2]; 6 mg capsule daily,2.6 min
same,"Time to Ejaculate, Range (minutes), Reported By Partner",[2]; 6 mg capsule daily,0.4 to 15 min
same,"Time to Ejaculate, Mean Time (minutes), Reported By Patient","[2]; 6 mg capsule daily, n 25",2.4 min
same,"Time to Ejaculate, Range (minutes), Reported By Patient","[2]; 6 mg capsule daily, n 25",0.03 to 16 min
same,"Time to Ejaculate, Mean Time (minutes), Reported By Partner",[2]; 9 mg capsule daily,2.3 min
same,"Time to Ejaculate, Range (minutes), Reported By Partner",[2]; 9 mg capsule daily,0.03 to 10 min
same,"Time to Ejaculate, Mean Time (minutes), Reported By Patient","[2]; 9 mg capsule daily, n 25",2.4 min
same,"Time to Ejaculate, Range (minutes), Reported By Patient","[2]; 9 mg capsule daily, n 25",0.03 to 12.5 min
same,"Time to Ejaculate, Mean Time (minutes), Reported By Partner",[2]; 12 mg capsule daily,3.5 min
same,"Time to Ejaculate, Range (minutes), Reported By Partner",[2]; 12 mg capsule daily,0.12 to 30 min
same,"Time to Ejaculate, Mean Time (minutes), Reported By Patient","[2]; 12 mg capsule daily, n 24",2.4 min
same,"Time to Ejaculate, Range (minutes), Reported By Patient","[2]; 12 mg capsule daily, n 24",0.25 to 10 min
same,"Reason for Early Termination: AE (Adverse Experience), patients","[2]; Clinical Site A, 10 enrolled",0
same,"Reason for Early Termination: AE (Adverse Experience), patients","[2]; Clinical Site B, 16 enrolled",3
same,"Reason for Early Termination: AE (Adverse Experience), patients","[2]; Clinical Site C, 34 enrolled",1
same,"Reason for Early Termination: AE (Adverse Experience), patients","[2]; Clinical Site D, 6 enrolled",1
same,"Reason for Early Termination: AE (Adverse Experience), patients","[2]; Clinical Site E, 22 enrolled",1
same,"Reason for Early Termination: AE (Adverse Experience), patients","[2]; Clinical Site F, 19 enrolled",2
same,"Reason for Early Termination: AE (Adverse Experience), patients","[2]; TOTALS of sites A-F, 107 enrolled",8
same,affinity for dopamine receptors,dopamine receptors,little affinity
same,inhibition of the P450 2D6 enzyme,P450 2D6 enzyme,potent inhibitor
